pIC50: −log10 of the molar value. Where a name gives a salt, the structure may show the parent alone.
What was measured:
[1] = tested on: Mite; test: Insecticidal activity, mite; type: in vivo; conditions: application rate of 5 lb./acre
[2] = tested on: Bollworm; test: Insecticidal activity, bollworm; type: in vivo; conditions: application rate of 5 lb./acre
[3] = molecular target: T1, Leucine aminopeptidase (Microsomal) (LAPM) (Sus scrofa, UniProt P15145); test: IC50 with leucine aminopeptidase (microsomal); type: biochemical, hog; conditions: 72 hours at 0°-5°, pH 7.2, substrate (L)-leucine-β-napthylamide, fluorescence
T1 construct: (LAPM) from hog kidney; from tissue; host or cells: hog kidney
T1 sequence (P15145 1-963): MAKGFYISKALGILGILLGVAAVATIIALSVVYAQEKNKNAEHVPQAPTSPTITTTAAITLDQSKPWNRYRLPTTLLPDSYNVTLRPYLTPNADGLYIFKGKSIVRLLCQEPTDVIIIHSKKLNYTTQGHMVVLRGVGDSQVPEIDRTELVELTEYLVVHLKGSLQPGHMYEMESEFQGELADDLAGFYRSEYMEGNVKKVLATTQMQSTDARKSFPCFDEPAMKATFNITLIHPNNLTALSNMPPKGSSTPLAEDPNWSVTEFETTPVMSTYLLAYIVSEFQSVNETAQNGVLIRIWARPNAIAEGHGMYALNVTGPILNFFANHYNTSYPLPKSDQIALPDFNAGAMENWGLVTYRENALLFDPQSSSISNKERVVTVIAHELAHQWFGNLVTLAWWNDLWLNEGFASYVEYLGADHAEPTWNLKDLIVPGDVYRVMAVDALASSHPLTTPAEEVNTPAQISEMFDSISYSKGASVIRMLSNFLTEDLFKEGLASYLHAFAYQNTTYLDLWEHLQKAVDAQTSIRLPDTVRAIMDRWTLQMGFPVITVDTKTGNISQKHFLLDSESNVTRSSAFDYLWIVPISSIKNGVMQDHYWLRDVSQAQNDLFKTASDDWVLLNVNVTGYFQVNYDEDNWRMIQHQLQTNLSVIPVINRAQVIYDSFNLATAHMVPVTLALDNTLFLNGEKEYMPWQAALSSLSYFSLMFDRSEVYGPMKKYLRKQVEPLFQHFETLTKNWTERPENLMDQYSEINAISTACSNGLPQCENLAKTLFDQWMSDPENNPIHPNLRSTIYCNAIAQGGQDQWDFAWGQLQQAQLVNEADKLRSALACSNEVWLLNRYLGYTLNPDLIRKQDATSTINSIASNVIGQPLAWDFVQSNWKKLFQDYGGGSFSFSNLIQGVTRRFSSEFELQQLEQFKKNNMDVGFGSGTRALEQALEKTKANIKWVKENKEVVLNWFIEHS
From the text: (§1) An IC50 value represents an approximation of the concentration of enzyme inhibitor required to inhibit enzyme activity by fifty percent. These values represent acceptable approximations of the inhibition constant KI, the dissociation constant in the following equation: [formula] where [E] is the concentration of enzyme, [I] is the concentration of inhibitor and [EI] is the concentration of enzyme/inhibitor complex.
(§2) Determination of IC50 values for LAPC and LAPM was accomplished by spectrophotometrically or fluorometrically following the rate of formation of p-nitroaniline or β-naphthylamine from hydrolysis of (L)-leucine-p-nitroanilide or (L)-leucine-β-napthylamide, respectively, in the presence of active enzyme. IC50 values for HEDA were determined by monitoring, via high pressure liquid chromatography, the formation of destyr-enkephalin from leu-enkephalin.
Assay mixtures were prepared containing 0.613 μg LAPM, 10 μg/mL bovine serum albumin (BSA). 0.1M phosphate buffer, pH 7.2, in a total volume of 2.7 mL. Measured amounts of compounds 5 to be tested for inhibitory activity were added in additional 0.1M phosphate buffer to a total volume of 3 mL. After 72 hours at 0°-5°, 1 mL of the enzyme/inhibitor mixture was treated with 4 μL of 0.2M (L)-leucine-β-napthylamide in dimethylsulfoxide, and the rate of increase of fluorescence at 410 nm, while exciting at 310 nm. was measured. Control experiments were performed identically, except no inhibitor was present. The concentration of the selected compound 5 observed to decrease reaction rates by one-half was used to determine the value of IC50 for each compound. This was accomplished by subtracting one-half the concentration of enzyme present in the sample mixtures (1.6×10^-9 M) from the inhibitor concentration observed to decrease reaction rates by one-half.

[4] = molecular target: T2, Leucine aminopeptidase (cytosolic) (LAPC) (Sus scrofa, UniProt P28839); test: IC50 with leucine aminopeptidase (cytosolic); type: biochemical, hog; conditions: 112 hours at 0°-5°, pH 8.5, substrate (L)-leucine-p-nitroanilide, absorption at 405 nm
T2 construct: (LAPC) from hog kidney; from tissue; host or cells: hog kidney
T2 sequence (P28839 33-519 limits assumed): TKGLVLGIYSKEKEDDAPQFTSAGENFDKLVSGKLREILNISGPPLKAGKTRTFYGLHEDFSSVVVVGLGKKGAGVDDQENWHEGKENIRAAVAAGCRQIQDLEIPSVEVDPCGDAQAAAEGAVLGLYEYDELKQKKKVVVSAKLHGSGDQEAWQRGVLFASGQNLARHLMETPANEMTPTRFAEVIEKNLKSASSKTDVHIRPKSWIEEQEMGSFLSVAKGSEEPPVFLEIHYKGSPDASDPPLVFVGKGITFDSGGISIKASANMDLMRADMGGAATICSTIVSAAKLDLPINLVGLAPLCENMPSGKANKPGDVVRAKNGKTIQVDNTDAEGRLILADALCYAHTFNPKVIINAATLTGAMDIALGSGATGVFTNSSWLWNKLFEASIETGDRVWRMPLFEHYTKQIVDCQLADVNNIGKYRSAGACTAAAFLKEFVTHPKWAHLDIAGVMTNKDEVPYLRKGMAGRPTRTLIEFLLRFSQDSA
From the text: as §1, §2
Assay mixtures were prepared, containing 10×10^-8 M LAPC, 1 mg/mL BSA, 0.025M MgCl2 and 0.01M tris-HCl buffer, pH 8.5, in a total volume of 2.7 mL. Varying amounts of selected compounds 5, dissolved in the same buffer, were added to make a final volume of 3.0 mL. After storage for 112 hours at 0°-5°, 1 mL of this mixture was treated with 25 μL of a 0.1M (L)-leucine-p-nitroanilide in dimethylsulfoxide, and the rate of increase of absorption at 405 nm was measured. IC50 values were calculated as in Example 26, above.

[5] = molecular target: Human enkephalin-degrading aminopeptidase (HEDA); test: IC50 with human enkephalin-degrading aminopeptidase; type: biochemical; conditions: incubated at 37° for 2 hours, pH 7.8, substrate leu-enkephalin, HPLC
From the text: An IC50 value represents an approximation of the concentration of enzyme inhibitor required to inhibit enzyme activity by fifty percent. These values represent acceptable approximations of the inhibition constant KI, the dissociation constant in the following equation: [formula] where [E] is the concentration of enzyme, [I] is the concentration of inhibitor and [EI] is the concentration of enzyme/inhibitor complex. Determination of IC50 values for LAPC and LAPM was accomplished by spectrophotometrically or fluorometrically following the rate of formation of p-nitroaniline or β-naphthylamine from hydrolysis of (L)-leucine-p-nitroanilide or (L)-leucine-β-napthylamide, respectively, in the presence of active enzyme. IC50 values for HEDA were determined by monitoring, via high pressure liquid chromatography, the formation of […]-enkephalin from leu-enkephalin. […] At this point, 15 μL of a 10 mM solution of leu-enkephalin, acetic acid salt in 2 mM phosphate buffer, pH 7.8, were added to each sample mixture. […] Detection was by ultraviolet absorption at 215 nm. A ratio of a peak corresponding to ([…])-enkephalin at about […] and a peak corresponding to leu-enkephalin at about 3.9 min. indicated reaction progress. The rate of increase of this ratio corresponded to the rate of enzyme hydrolysis of substrate leu-enkephalin.

[6] = tested on: Leaf Hopper; test: Insecticidal activity, leaf hopper; type: in vivo; conditions: application rate of 5 lb./acre
[7] = tested on: Bean aphid; test: Insecticidal activity, bean aphid; type: in vivo; conditions: application rate of 5 lb./acre
[8] = molecular target: α-chymotrypsin (Bos taurus, UniProt P00766); conditions: Matteson et al., J. Am. Chem. Soc. 103:5241 (1981); cited from earlier work
[9] = tested on: subtilisin; conditions: Philipp, et al., FEBS Letters 133:36 (1971); cited from earlier work
[10] = tested on: Ant; test: Insecticidal activity, ant feeding; type: in vivo; conditions: application rate of 5 lb./acre

SMILES | pIC50 [3] | pIC50 [4] | pIC50 [5] | other results
CC(C)CC(Cl)B1OC(C)(C)C(C)(C)O1 (stereo not drawn) [3 (R=CH3 CH(CH3)2), 2-(1-chloro-3-methylbutyl)-4,4,5,5-tetramethyl-1,3,2-dioxaborolane] |  |  |  | Mite, % control [1]: 64%
CCC(C)B1OC(C)(C)C(C)(C)O1 (stereo not drawn) [2 (R=CH(CH3)C2 H5), 2-(1-methylpropyl)-4,4,5,5-tetramethyl-1,3,2-dioxaborolane] |  |  |  | Bollworm, % control [2]: 20%
CC(C)CC(N)B1OC(C)(C)C(C)(C)O1 (stereo not drawn) [5 (R=CH2 CH(CH3)2), 3-methyl-1-(4,4,5,5-tetramethyl-1,3,2-dioxaborolane-2-yl)-1-butamine, trifluoroacetic acid salt] | 8.92 | 6.82 | 8.13 | 
CC(C)CB1OC(C)(C)C(C)(C)O1 [2 (R=CH3 CH(CH3)2), 4,4,5,5-tetramethyl-2-(2-methylpropyl)-1,3,2-dioxaborolane] |  |  |  | Leaf Hopper, % control [6]: 50%
CC1(C)OB(C(N)Cc2ccccc2)OC1(C)C (stereo not drawn) [5 (R=CH2 C6 H5), 4,4,5,5-tetramethyl-α-(phenylmethyl)-1,3,2-dioxoborolane-2-methanamine, trifluoroacetic acid salt] | 9.70 | 8.00 | 8.28 | 
CC(C)C(N)B1OC(C)(C)C(C)(C)O1 (stereo not drawn) [5 (R=CH(CH3)2), 4,4,5,5-tetramethyl-α-(1-methylethyl)-1,3,2-dioxaborolane-2-methanamine, trifluoroacetic acid salt] | 8.67 | 7.15 | 7.38 | 
CCC(C)C(N)B1OC(C)(C)C(C)(C)O1 (stereo not drawn) [5 (R=CH(CH3)C2 H5), 4,4,5,5-tetramethyl-α-(1-methylpropyl)-1,3,2-dioxaborolane-2-methanamine, trifluoroacetic acid salt] | 8.66 | 7.52 | 7.39 | 
CCC(C)C(Cl)B1OC(C)(C)C(C)(C)O1 (stereo not drawn) [3 (R=CH(CH3)C2 H5), 2-(1-chloro-2-methylbutyl)-4,4,5,5-tetramethyl-1,3,2-dioxaborolane] |  |  |  | Bean aphid, % control [7]: 39%
CC(=O)NC(Cc1ccccc1)B(O)O (stereo not drawn) [IV] |  |  |  | inhibition of α-chymotrypsin [8]: observed to inhibit; inhibition of subtilisin [9]: inhibited
CC1(C)OB(C(Cl)Cc2ccccc2)OC1(C)C (stereo not drawn) [3 (R=CHC6 H5), 2-(1-chloro-2-phenylethyl)-4,4,5,5-tetramethyl-1,3,2-dioxaborolane] |  |  |  | Bean aphid, % control [7]: 48%
CB1OC(C)(C)C(C)(C)O1 [2 (R=CH3), 2,4,4,5,5-pentamethyl-1,3,2-dioxaborolane] |  |  |  | Ant Feeding, % control [10]: 31%
CC(N)B1OC(C)(C)C(C)(C)O1 (stereo not drawn) [5 (R=CH3), α,4,4,5,5,pentamethyl-1,3,2-dioxoborolane-2-methanamine, trifluoroacetic acid salt] | 8.19 | 4.52 | 7.15 | 
CC1(C)OB(Cc2ccccc2)OC1(C)C [2 (R=CHC6 H5), 4,4,5,5-tetramethyl-2-(phenylmethyl)-1,3,2-dioxaborolane] |  |  |  | Mite, % control [1]: 70%
